The experiment concerns the target SARS-CoV-2 Mpro (Severe acute respiratory syndrome coronavirus 2, UniProt P0DTD1). Put plainly: SARS-CoV-2 Mpro enzyme assay (FRET). The class given is biochemical. The settings on record: FRET substrate Dabcyl-KTSAVLQSGFRKM-E(Edans)-Amide, 20 nM enzyme, 30 min preincubation at 30° C., mean n=2; read-out: SARS-CoV-2 Mpro enzyme assay pKi (converted).
Take `CC[C@@H](CC(=O)N[C@@H](CC(C)(C)C)C(=O)NC(C[C@@H]1CCNC1=O)C(=O)C(=O)NC1CC1)c1ccccc1` (single isomer, unassigned) [Example 14]: the Ki was 0.00794 µM. Consider `O=C(/C=C/c1ccc(Cl)cc1F)N[C@@H](CC1CC1)C(=O)NC(C[C@@H]1CCNC1=O)C(=O)C(=O)NC1CC1` (stereo partly drawn) [Example 28, 3-((S)-2-((E)-3-(4-chloro-2-fluorophenyl)acrylamido)-3-cyclopropylpropanamido)-N-cyclopropyl-2-oxo-4-((S)-2-oxopyrrolidin-3-yl)butanamide], for which the Ki was 0.0158 µM. The result for `CCNC(=O)C(=O)C(C[C@@H]1CCNC1=O)NC(=O)[C@H](CC(C)(C)C)NC(=O)/C=C/c1ccc(Cl)cc1Cl` (stereo partly drawn) [Example 26, (2S)-2-((E)-3-(2,4-dichlorophenyl)acrylamido)-N-(4-(ethylamino)-3,4-dioxo-1-((S)-2-oxopyrrolidin-3-yl)butan-2-yl)-4,4-dimethylpentanamide] reads 0.01 µM; that for `CC(C)(C)C[C@H](NC(=O)/C=C/c1ccc(Cl)cc1Cl)C(=O)NC(C[C@@H]1CCNC1=O)C(=O)C(N)=O` (stereo partly drawn) [Example 27, (2S)-N-(4-amino-3,4-dioxo-1-((S)-2-oxopyrrolidin-3-yl)butan-2-yl)-2-((E)-3-(2,4-dichlorophenyl)acrylamido)-4,4-dimethylpentanamide], 0.00794 µM. The result for `O=C(/C=C/c1ccc(Cl)cc1F)N[C@@H](CC1CCC1)C(=O)NC(C[C@@H]1CCNC1=O)C(=O)C(=O)NC1CC1` (stereo partly drawn) [Example 31, 3-((S)-2-((E)-3-(4-chloro-2-fluorophenyl)acrylamido)-3-cyclobutylpropanamido)-N-cyclopropyl-2-oxo-4-((S)-2-oxopyrrolidin-3-yl)butanamide] reads 0.0251 µM; that for `CCNC(=O)C(=O)C(C[C@@H]1CCNC1=O)NC(=O)[C@H](CC1CC1)NC(=O)/C=C/c1ccc(Cl)cc1F` (stereo partly drawn) [Example 19, 3-((S)-2-((E)-3-(4-chloro-2-fluorophenyl)acrylamido)-3-cyclopropylpropanamido)-N-ethyl-2-oxo-4-((S)-2-oxopyrrolidin-3-yl)butanamide], 0.0126 µM; that for `CC(C)(C)C[C@H](NC(=O)/C=C/c1ccc(Cl)cc1Cl)C(=O)NC(C#N)C[C@@H]1CCNC1=O` (stereo partly drawn) [Example 9, (2S)-N-(1-Cyano-2-((S)-2-oxopyrrolidin-3-yl)ethyl)-2-((E)-3-(2,4-dichlorophenyl)acrylamido)-4,4-dimethylpentanamide], 0.398 µM.

For the compound `CC[C@H](CC(=O)N[C@@H](CC(C)(C)C)C(=O)NC(C[C@@H]1CCNC1=O)C(=O)C(=O)NC1CC1)c1ccccc1` (single isomer, unassigned) [Example 15], the Ki was 0.01 µM. The result for `NC(=O)C(=NO)C(C[C@@H]1CCNC1=O)NC(=O)[C@H](CC1CC1)NC(=O)/C=C/c1ccc(Cl)cc1F` (stereo partly drawn) [Example 4, 3-((S)-2-((E)-3-(4-chloro-2-fluorophenyl)acrylamido)-3-cyclopropylpropanamido)-2-(hydroxyimino)-4-((S)-2-oxopyrrolidin-3-yl)butanamide] reads 1 µM; that for `CC(C)(C)C[C@H](NC(=O)/C=C/c1ccc(Cl)cc1Cl)C(=O)NC(C[C@@H]1CCNC1=O)C(=O)C(=O)NC1CC1` (stereo partly drawn) [Example 10, (2S)-N-(4-(Cyclopropylamino)-3,4-dioxo-1-((S)-2-oxopyrrolidin-3-yl)butan-2-yl)-2-((E)-3-(2,4-dichlorophenyl)acrylamido)-4,4-dimethylpentanamide], 0.00631 µM. In the case of `CC[C@H](CC(=O)N[C@@H](CC1CC1)C(=O)NC(C[C@@H]1CCNC1=O)C(=O)C(=O)NC1CC1)c1ccccc1` (stereo partly drawn) [Example 33, (3R)-N-((2S)-3-cyclopropyl-1-((4-(cyclopropylamino)-3,4-dioxo-1-((S)-2-oxopyrrolidin-3-yl)butan-2-yl)amino)-1-oxopropan-2-yl)-3-phenylpentanamide] it was 0.0251 µM; in that of `CC(C)(C)C[C@H](NC(=O)C[C@H](c1ccccc1)C(F)(F)F)C(=O)NC(C[C@@H]1CCNC1=O)C(=O)C(=O)NC1CC1` (single isomer, unassigned) [Example 17], 0.0126 µM; in that of `NC(=O)C(=O)C(C[C@@H]1CCNC1=O)NC(=O)[C@H](CC1CC1)NC(=O)/C=C/c1ccc(Cl)cc1Cl` (stereo partly drawn) [Example 20, 3-((S)-3-cyclopropyl-2-((E)-3-(2,4-dichlorophenyl)acrylamido)propanamido)-2-oxo-4-((S)-2-oxopyrrolidin-3-yl)butanamide], 0.1 µM. The result for `NC(=O)C(=O)C(CC1CCCC1)NC(=O)[C@H](CC1CC1)NC(=O)/C=C/c1ccc(Cl)cc1F` (stereo partly drawn) [Example 7, 3-((S)-2-((E)-3-(4-chloro-2-fluorophenyl)acrylamido)-3-cyclopropylpropanamido)-4-cyclopentyl-2-oxobutanamide] reads 7.94 µM; that for `CC(C)(C)NC(=O)C(=O)C(C[C@@H]1CCNC1=O)NC(=O)[C@H](CC1CC1)NC(=O)/C=C/c1ccc(Cl)cc1F` (stereo partly drawn) [Example 5, N-(tert-butyl)-3-((S)-2-((E)-3-(4-chloro-2-fluorophenyl)acrylamido)-3-cyclopropylpropanamido)-2-oxo-4-((S)-2-oxopyrrolidin-3-yl)butanamide], 0.501 µM. `CC(C)(C)C[C@H](NC(=O)/C=C/c1ccc(Cl)cc1F)C(=O)NC(C[C@@H]1CCNC1=O)C(=O)C(N)=O` (stereo partly drawn) [Example 22, (2S)-N-(4-amino-3,4-dioxo-1-((S)-2-oxopyrrolidin-3-yl)butan-2-yl)-2-((E)-3-(4-chloro-2-fluorophenyl)acrylamido)-4,4-dimethylpentanamide]: the Ki is 0.00631 µM. In the case of `O=C(CCc1ccc(Cl)cc1Cl)N[C@@H](CC1CC1)C(=O)NC(C[C@@H]1CCNC1=O)C(=O)C(=O)NC1CC1` (stereo partly drawn) [Example 30, N-cyclopropyl-3-((S)-3-cyclopropyl-2-(3-(2,4-dichlorophenyl)propanamido)propanamido)-2-oxo-4-((S)-2-oxopyrrolidin-3-yl)butanamide] it was 0.02 µM; in that of `CCNC(=O)C(=O)C(C[C@@H]1CCNC1=O)NC(=O)[C@H](CC(C)(C)C)NC(=O)/C=C/c1ccc(Cl)cc1F` (stereo partly drawn) [Example 23, (2S)-2-((E)-3-(4-chloro-2-fluorophenyl)acrylamido)-N-(4-(ethylamino)-3,4-dioxo-1-((S)-2-oxopyrrolidin-3-yl)butan-2-yl)-4,4-dimethylpentanamide], 0.0126 µM.

In the case of `CC[C@@H](CC(=O)N[C@@H](CC1CC1)C(=O)NC(C[C@@H]1CCNC1=O)C(=O)C(=O)NC1CC1)c1ccccc1` (stereo partly drawn) [Example 32, (3 S)-N-((2S)-3-cyclopropyl-1-((4-(cyclopropylamino)-3,4-dioxo-1-((S)-2-oxopyrrolidin-3-yl)butan-2-yl)amino)-1-oxopropan-2-yl)-3-phenylpentanamide], the Ki is 0.0126 µM.

Consider `O=C(/C=C/c1ccc(Cl)cc1F)N[C@@H](CC1CC1)C(=O)NC(C[C@@H]1CCNC1=O)C(=O)C(=O)NC1CC1` (stereo partly drawn) [Example 21, 3-((S)-2-((E)-3-(4-chloro-2-fluorophenyl)acrylamido)-3-cyclopropylpropanamido)-N-cyclopropyl-2-oxo-4-((S)-2-oxopyrrolidin-3-yl)butanamide], for which the Ki was 0.00794 µM. The result for `O=C(N[C@@H](CC1CC1)C(=O)NC(C[C@@H]1CCNC1=O)C(=O)C(=O)NC1CC1)OCc1ccccc1` (stereo partly drawn) [Example 29, benzyl ((2S)-3-cyclopropyl-1-((4-(cyclopropylamino)-3,4-dioxo-1-((S)-2-oxopyrrolidin-3-yl)butan-2-yl)amino)-1-oxopropan-2-yl)carbamate] reads 0.0158 µM; that for `CCNC(=O)C(=O)C(C[C@@H]1CCNC1=O)NC(=O)[C@H](CC1CC1)NC(=O)/C=C/c1ccc(Cl)cc1Cl` (stereo partly drawn) [Example 24, 3-((S)-3-cyclopropyl-2-((E)-3-(2,4-dichlorophenyl)acrylamido)propanamido)-N-ethyl-2-oxo-4-((S)-2-oxopyrrolidin-3-yl)butanamide], 0.0126 µM.

In the case of `NC(=O)C(=O)C(C[C@@H]1CCNC1=O)NC(=O)[C@H](CC1CC1)NC(=O)CCc1ccccc1` (stereo partly drawn) [Example 8, 3-((S)-3-cyclopropyl-2-(3-phenylpropanamido)propanamido)-2-oxo-4-((S)-2-oxopyrrolidin-3-yl)butanamide], the Ki was 0.0501 µM. The result for `CC(C)(C)C[C@H](NC(=O)/C=C/c1ccc(Cl)cc1F)C(=O)NC(C[C@@H]1CCNC1=O)C(=O)C(=O)NC1CC1` (stereo partly drawn) [Example 11, (2S)-2-((E)-3-(4-chloro-2-fluorophenyl)acrylamido)-N-(4-(cyclopropylamino)-3,4-dioxo-1-((S)-2-oxopyrrolidin-3-yl)butan-2-yl)-4,4-dimethylpentanamide] reads 100000 µM; that for `NC(=O)C(=O)C(CC1CC1)NC(=O)[C@H](CC1CC1)NC(=O)/C=C/c1ccc(Cl)cc1F` (stereo partly drawn) [Example 6, 3-((S)-2-((E)-3-(4-chloro-2-fluorophenyl)acrylamido)-3-cyclopropylpropanamido)-4-cyclopropyl-2-oxobutanamide], 5.01 µM. Turning to `CC(C)C[C@H](NC(=O)/C=C/c1ccc(Cl)cc1F)C(=O)NC(C[C@@H]1CCNC1=O)C(=O)C(N)=O` (stereo partly drawn) [Example 18, (2S)-N-(4-amino-3,4-dioxo-1-((S)-2-oxopyrrolidin-3-yl)butan-2-yl)-2-((E)-3-(4-chloro-2-fluorophenyl)acrylamido)-4-methylpentanamide], the Ki is 0.0126 µM.

On to `NC(=O)C(=O)C(C[C@@H]1CCNC1=O)NC(=O)[C@H](CC1CC1)NC(=O)OCc1ccccc1` (stereo partly drawn) [Example 3, benzyl ((2S)-1-((4-amino-3,4-dioxo-1-((S)-2-oxopyrrolidin-3-yl)butan-2-yl)amino)-3-cyclopropyl-1-oxopropan-2-yl)carbamate], for which the Ki was 0.0251 µM.

Take `O=C(/C=C/c1ccc(Cl)cc1Cl)N[C@@H](CC1CC1)C(=O)NC(C[C@@H]1CCNC1=O)C(=O)C(=O)NC1CC1` (stereo partly drawn) [Example 25, N-cyclopropyl-3-((S)-3-cyclopropyl-2-((E)-3-(2,4-dichlorophenyl)acrylamido)propanamido)-2-oxo-4-((S)-2-oxopyrrolidin-3-yl)butanamide]: the Ki is 0.01 µM.

For the origin of these results see US20240083845A1 (priority 2020, published 2024).
